From PubChem BioAssay AID1963963 (Molecular Pharmacology Branch, DTP, NCI, 2024)

System: 958667-338-R-J2-PDC tumor spheroids viability
Assay: Anticancer human tumor 958667-338-R-J2-PDC patient-derived colon adenocarcinoma cell line growth inhibition [PI3K]
Settings: spheroids with HUVEC and MSC; for IC50: curve of first compound; for viability, T/C: stronger effect = lower value
Outline: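 Tumor cells grown as multi-cell spheroids with HUVEC endothelial cells and MSC fibroblast-like stroma were treated with targeted agents combined with inavolisib, alpelisib, duvelisib or copanlisib. Doses fell in half-log steps from near clinical Cmax, else from 10 microM. Viability was measured.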
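Note: spheroids exposed to compounds for seven days before readout.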

For `CC1(C)CCC(Nc2ncc(C(F)(F)F)c(-c3c[nH]c4c(P(C)(C)=O)c(C#N)ccc34)n2)CN1` (centres undefined) + COc1c(OCCCN2CCOCC2)ccc2c3n(c(=NC(=O)c4cnc(N)nc4)nc12)CCN3, the IC50 (second compound 0.00316 µM) was 3.33 µM, the IC50 (second compound 0.01 µM) was 1.98 µM and the IC50 (second compound 0.0316 µM) was 3.72 µM. For the same compound, the IC50 (second compound 0.1 µM) was 1.4 µM, the IC50 (second compound 0.316 µM) was under 0.0316 µM and the IC50 (second compound 1 µM) was under 0.0316 µM. For the same compound, the viability, T/C (second compound 0.00316 µM, first compound 0.0316 µM) was 90%, the viability, T/C (second compound 0.00316 µM, first compound 0.1 µM) was 94.7% and the viability, T/C (second compound 0.00316 µM, first compound 0.316 µM) was 71.1%. For the same compound, the viability, T/C (second compound 0.00316 µM, first compound 1 µM) was 55.7%, the viability, T/C (second compound 0.00316 µM, first compound 3.16 µM) was 66.4% and the viability, T/C (second compound 0.00316 µM, first compound 10 µM) was 22.9%. The viability, T/C (second compound 0.01 µM, first compound 0.0316 µM) was 105%, the viability, T/C (second compound 0.01 µM, first compound 0.1 µM) was 85.8% and the viability, T/C (second compound 0.01 µM, first compound 0.316 µM) was 68.2%. For the same compound, the viability, T/C (second compound 0.01 µM, first compound 1 µM) was 59.8%, the viability, T/C (second compound 0.01 µM, first compound 3.16 µM) was 58.7% and the viability, T/C (second compound 0.01 µM, first compound 10 µM) was 19.4%. The viability, T/C (second compound 0.0316 µM, first compound 0.0316 µM) was 72.5%, the viability, T/C (second compound 0.0316 µM, first compound 0.1 µM) was 71.5% and the viability, T/C (second compound 0.0316 µM, first compound 0.316 µM) was 65.9%. For the same compound, the viability, T/C (second compound 0.0316 µM, first compound 1 µM) was 55%, the viability, T/C (second compound 0.0316 µM, first compound 3.16 µM) was 60.4% and the viability, T/C (second compound 0.0316 µM, first compound 10 µM) was 20.9%. The viability, T/C (second compound 0.1 µM, first compound 0.0316 µM) was 69%, the viability, T/C (second compound 0.1 µM, first compound 0.1 µM) was 71.9% and the viability, T/C (second compound 0.1 µM, first compound 0.316 µM) was 48.2%. For the same compound, the viability, T/C (second compound 0.1 µM, first compound 1 µM) was 53.7%, the viability, T/C (second compound 0.1 µM, first compound 3.16 µM) was 44.8% and the viability, T/C (second compound 0.1 µM, first compound 10 µM) was 4.88%. For the same compound, the viability, T/C (second compound 0.316 µM, first compound 0.0316 µM) was 46.3%, the viability, T/C (second compound 0.316 µM, first compound 0.1 µM) was 42.9% and the viability, T/C (second compound 0.316 µM, first compound 0.316 µM) was 36.8%. The viability, T/C (second compound 0.316 µM, first compound 1 µM) was 39.5%, the viability, T/C (second compound 0.316 µM, first compound 3.16 µM) was 25.6% and the viability, T/C (second compound 0.316 µM, first compound 10 µM) was 1.02%. The viability, T/C (second compound 1 µM, first compound 0.0316 µM) was 19.9%, the viability, T/C (second compound 1 µM, first compound 0.1 µM) was 16.8% and the viability, T/C (second compound 1 µM, first compound 0.316 µM) was 14.9%. For the same compound, the viability, T/C (second compound 1 µM, first compound 1 µM) was 15.8%, the viability, T/C (second compound 1 µM, first compound 3.16 µM) was 10.2% and the viability, T/C (second compound 1 µM, first compound 10 µM) was 1.04%.
Work on `Cn1cnc2c(F)c(Nc3ccc(Br)cc3Cl)c(C(=O)NOCCO)cc21` + Cc1nc(NC(=O)N2CCCC2C(N)=O)sc1-c1ccnc(C(C)(C)C(F)(F)F)c1 yielded an IC50 (second compound 0.0316 µM) of 0.413 µM, an IC50 (second compound 0.1 µM) of 0.328 µM and an IC50 (second compound 0.316 µM) of 0.108 µM. For the same compound, the IC50 (second compound 1 µM) was 0.0585 µM, the IC50 (second compound 3.16 µM) was 0.066 µM and the IC50 (second compound 10 µM) was 0.0142 µM. It also gave a viability, T/C (second compound 0.0316 µM, first compound 0.00949 µM) of 99.2%, a viability, T/C (second compound 0.0316 µM, first compound 0.03 µM) of 81.9% and a viability, T/C (second compound 0.0316 µM, first compound 0.0949 µM) of 73.6%. For the same compound, the viability, T/C (second compound 0.0316 µM, first compound 0.3 µM) was 56.9%, the viability, T/C (second compound 0.0316 µM, first compound 0.949 µM) was 35.1% and the viability, T/C (second compound 0.0316 µM, first compound 3 µM) was 15.8%. The viability, T/C (second compound 0.1 µM, first compound 0.00949 µM) was 96.1%, the viability, T/C (second compound 0.1 µM, first compound 0.03 µM) was 95.3% and the viability, T/C (second compound 0.1 µM, first compound 0.0949 µM) was 60.3%. For the same compound, the viability, T/C (second compound 0.1 µM, first compound 0.3 µM) was 52.3%, the viability, T/C (second compound 0.1 µM, first compound 0.949 µM) was 36.4% and the viability, T/C (second compound 0.1 µM, first compound 3 µM) was 12.7%. The viability, T/C (second compound 0.316 µM, first compound 0.00949 µM) was 94.8%, the viability, T/C (second compound 0.316 µM, first compound 0.03 µM) was 69% and the viability, T/C (second compound 0.316 µM, first compound 0.0949 µM) was 52.7%. For the same compound, the viability, T/C (second compound 0.316 µM, first compound 0.3 µM) was 35.5%, the viability, T/C (second compound 0.316 µM, first compound 0.949 µM) was 21.9% and the viability, T/C (second compound 0.316 µM, first compound 3 µM) was 11.9%. For the same compound, the viability, T/C (second compound 1 µM, first compound 0.00949 µM) was 80%, the viability, T/C (second compound 1 µM, first compound 0.03 µM) was 63% and the viability, T/C (second compound 1 µM, first compound 0.0949 µM) was 40.3%. The viability, T/C (second compound 1 µM, first compound 0.3 µM) was 24%, the viability, T/C (second compound 1 µM, first compound 0.949 µM) was 14.7% and the viability, T/C (second compound 1 µM, first compound 3 µM) was 7.55%. For the same compound, the viability, T/C (second compound 3.16 µM, first compound 0.00949 µM) was 50.3%, the viability, T/C (second compound 3.16 µM, first compound 0.03 µM) was 63.5% and the viability, T/C (second compound 3.16 µM, first compound 0.0949 µM) was 46.2%. The viability, T/C (second compound 3.16 µM, first compound 0.3 µM) was 16.4%, the viability, T/C (second compound 3.16 µM, first compound 0.949 µM) was 11% and the viability, T/C (second compound 3.16 µM, first compound 3 µM) was 3.01%. It also gave a viability, T/C (second compound 10 µM, first compound 0.00949 µM) of 56.8%, a viability, T/C (second compound 10 µM, first compound 0.03 µM) of 37.7% and a viability, T/C (second compound 10 µM, first compound 0.0949 µM) of 12.8%. For the same compound, the viability, T/C (second compound 10 µM, first compound 0.3 µM) was 9.46%, the viability, T/C (second compound 10 µM, first compound 0.949 µM) was 5.65% and the viability, T/C (second compound 10 µM, first compound 3 µM) was 1.13%.
